Values after ≈ are worked out from the molar mass of the structure shown.
Legend:
Assay type in all cases: functional
Streptococcus pneumoniae [1] = test: Bactericidal activity against Streptococcus pneumoniae 07P390 harboring c-erm gene incubated for 16 to 20 hrs by CLSI based broth microdilution method; settings: time 16-20 hrs
Haemophilus influenzae [2] = test: Selectivity ratio of MBC for Haemophilus influenzae ATCC 49247 to MIC for Haemophilus influenzae ATCC 49247
Staphylococcus aureus [3] = test: Antibacterial activity against methicillin-resistant Staphylococcus aureus PU 20 harboring c-ermA gene incubated for 16 to 20 hrs by CLSI based broth microdilution method; settings: time 16-20 hrs
Staphylococcus aureus [4] = test: Bactericidal activity against methicillin-resistant Staphylococcus aureus PU 32 harboring i-ermA gene incubated for 16 to 20 hrs by CLSI based broth microdilution method; settings: time 16-20 hrs
Streptococcus pneumoniae [5] = test: Bactericidal activity against Streptococcus pneumoniae ATCC 49619 incubated for 16 to 20 hrs by CLSI based broth microdilution method; settings: time 16-20 hrs
Streptococcus pyogenes [6] = test: Antibacterial activity against Streptococcus pyogenes 01-968 harboring i-ermB gene incubated for 16 to 20 hrs by CLSI based broth microdilution method; settings: time 16-20 hrs
Staphylococcus aureus [7] = test: Selectivity ratio of MBC for methicillin-resistant Staphylococcus aureus PU 32 harboring i-ermA gene to MIC for methicillin-resistant Staphylococcus aureus PU 32 harboring i-ermA gene
Streptococcus pneumoniae [8] = test: Bactericidal activity against Streptococcus pneumoniae PU 09 harboring mef gene incubated for 16 to 20 hrs by CLSI based broth microdilution method; settings: time 16-20 hrs
Haemophilus influenzae [9] = test: Antibacterial activity against Haemophilus influenzae ATCC 49247 incubated for 16 to 20 hrs by CLSI based broth microdilution method; settings: time 16-20 hrs
Streptococcus pyogenes [10] = test: Bactericidal activity against Streptococcus pyogenes 01-968 harboring i-ermB gene incubated for 16 to 20 hrs by CLSI based broth microdilution method; settings: time 16-20 hrs
Staphylococcus aureus [11] = test: Bactericidal activity against methicillin-resistant Staphylococcus aureus PU 20 harboring c-ermA gene incubated for 16 to 20 hrs by CLSI based broth microdilution method; settings: time 16-20 hrs
Streptococcus pneumoniae [12] = test: Selectivity ratio of MBC for Streptococcus pneumoniae PU 09 harboring mef gene to MIC for Streptococcus pneumoniae PU 09 harboring mef gene
Streptococcus pneumoniae [13] = test: Selectivity ratio of MBC for Streptococcus pneumoniae ATCC 49619 to MIC for Streptococcus pneumoniae ATCC 49619
Streptococcus pyogenes [14] = test: Selectivity ratio of MBC for Streptococcus pyogenes 01-968 harboring i-ermB gene to MIC for Streptococcus pyogenes 01-968 harboring i-ermB gene
Streptococcus pneumoniae [15] = test: Selectivity ratio of MBC for Streptococcus pneumoniae 07P390 harboring c-erm gene to MIC for Streptococcus pneumoniae 07P390 harboring c-erm gene
Haemophilus influenzae [16] = test: Bactericidal activity against Haemophilus influenzae ATCC 49247 incubated for 16 to 20 hrs by CLSI based broth microdilution method; settings: time 16-20 hrs
Streptococcus pneumoniae [17] = test: Antibacterial activity against Streptococcus pneumoniae ATCC 49619 incubated for 16 to 20 hrs by CLSI based broth microdilution method; settings: time 16-20 hrs
Streptococcus pneumoniae [18] = test: Antibacterial activity against Streptococcus pneumoniae 07P390 harboring c-erm gene incubated for 16 to 20 hrs by CLSI based broth microdilution method; settings: time 16-20 hrs
Staphylococcus aureus [19] = test: Antibacterial activity against methicillin-resistant Staphylococcus aureus PU 32 harboring i-ermA gene incubated for 16 to 20 hrs by CLSI based broth microdilution method; settings: time 16-20 hrs
Streptococcus pneumoniae [20] = test: Antibacterial activity against Streptococcus pneumoniae PU 09 harboring mef gene incubated for 16 to 20 hrs by CLSI based broth microdilution method; settings: time 16-20 hrs

SMILES	MBC (Streptococcus pneumoniae [1])	Selectivity ratio (Haemophilus influenzae [2])	MIC (Staphylococcus aureus [3])	MBC (Staphylococcus aureus [4])	MBC (Streptococcus pneumoniae [5])	MIC (Streptococcus pyogenes [6])	Selectivity ratio (Staphylococcus aureus [7])	MBC (Streptococcus pneumoniae [8])	MIC (Haemophilus influenzae [9])	MBC (Streptococcus pyogenes [10])	MBC (Staphylococcus aureus [11])	Selectivity ratio (Streptococcus pneumoniae [12])	Selectivity ratio (Streptococcus pneumoniae [13])	Selectivity ratio (Streptococcus pyogenes [14])	Selectivity ratio (Streptococcus pneumoniae [15])	MBC (Haemophilus influenzae [16])	MIC (Streptococcus pneumoniae [17])	MIC (Streptococcus pneumoniae [18])	MIC (Staphylococcus aureus [19])	MIC (Streptococcus pneumoniae [20])
CC[C@H]1OC(=O)[C@H](C)[C@@H](OC(=O)CCN2CCN(c3cc4c(cc3F)c(=O)c(C(=O)O)cn4C3CC3)CC2)[C@H](C)[C@@H](O[C@@H]2O[C@H](C)C[C@H](N(C)C)[C@H]2O)[C@](C)(OC)C[C@@H](C)/C(=N\OCC#Cc2cncc(C(=O)NC)c2)[C@H](C)[C@H]2OC(=O)O[C@@]21C	32 µg/mL (≈ 26.9 µM)	1	> 256 µg/mL	> 256 µg/mL	0.25 µg/mL (≈ 0.21 µM)	16 µg/mL (≈ 13.5 µM)	>4	0.5 µg/mL (≈ 0.421 µM)	4 µg/mL (≈ 3.37 µM)	> 128 µg/mL	> 256 µg/mL	4	8	>8	8	4 µg/mL (≈ 3.37 µM)	0.03 µg/mL (≈ 0.0252 µM)	4 µg/mL (≈ 3.37 µM)	64 µg/mL (≈ 53.9 µM)	0.12 µg/mL (≈ 0.101 µM)
CC[C@H]1OC(=O)[C@H](C)[C@@H](OC(=O)CCNCCCCNc2cc3c(cc2F)c(=O)c(C(=O)O)cn3C2CC2)[C@H](C)[C@@H](O[C@@H]2O[C@H](C)C[C@H](N(C)C)[C@H]2O)[C@](C)(OC)C[C@@H](C)/C(=N\OC/C=C/c2cncc(C(=O)NC)c2)[C@H](C)[C@H]2OC(=O)O[C@@]21C	2 µg/mL (≈ 1.68 µM)	2	> 256 µg/mL	> 256 µg/mL	0.008 µg/mL (≈ 0.00671 µM)	0.12 µg/mL (≈ 0.101 µM)	>8	0.06 µg/mL (≈ 0.0503 µM)	2 µg/mL (≈ 1.68 µM)	> 1 µg/mL	> 256 µg/mL	1	>=1	>8	1	4 µg/mL (≈ 3.35 µM)	≤ 0.008 µg/mL	2 µg/mL (≈ 1.68 µM)	32 µg/mL (≈ 26.8 µM)	0.06 µg/mL (≈ 0.0503 µM)
CC[C@H]1OC(=O)[C@H](C)[C@@H](OC(=O)CCNCCCCNc2cc3c(cc2F)c(=O)c(C(=O)O)cn3C2CC2)[C@H](C)[C@@H](O[C@@H]2O[C@H](C)C[C@H](N(C)C)[C@H]2O)[C@](C)(OC)C[C@@H](C)/C(=N\OCCCc2cncc(C(=O)NC)c2)[C@H](C)[C@H]2OC(=O)O[C@@]21C	0.12 µg/mL (≈ 0.1 µM)	2	> 256 µg/mL	32 µg/mL (≈ 26.8 µM)	0.008 µg/mL (≈ 0.0067 µM)	0.25 µg/mL (≈ 0.209 µM)	1	0.03 µg/mL (≈ 0.0251 µM)	8 µg/mL (≈ 6.7 µM)	> 2 µg/mL	> 256 µg/mL	>=4	>=1	>8	4	16 µg/mL (≈ 13.4 µM)	≤ 0.008 µg/mL	0.03 µg/mL (≈ 0.0251 µM)	32 µg/mL (≈ 26.8 µM)	≤ 0.008 µg/mL
CC[C@H]1OC(=O)[C@H](C)[C@@H](OC(=O)CCNCCCCNc2cc3c(cc2F)c(=O)c(C(=O)O)cn3C2CC2)[C@H](C)[C@@H](O[C@@H]2O[C@H](C)C[C@H](N(C)C)[C@H]2O)[C@](C)(OC)C[C@@H](C)/C(=N\OCC#Cc2cncc(NC(C)=O)c2)[C@H](C)[C@H]2OC(=O)O[C@@]21C	0.5 µg/mL (≈ 0.42 µM)	1	> 256 µg/mL	64 µg/mL (≈ 53.8 µM)	0.016 µg/mL (≈ 0.0134 µM)	0.5 µg/mL (≈ 0.42 µM)	2	0.03 µg/mL (≈ 0.0252 µM)	4 µg/mL (≈ 3.36 µM)	> 4 µg/mL	> 256 µg/mL	1	1	>8	8	4 µg/mL (≈ 3.36 µM)	0.016 µg/mL (≈ 0.0134 µM)	0.06 µg/mL (≈ 0.0504 µM)	32 µg/mL (≈ 26.9 µM)	0.03 µg/mL (≈ 0.0252 µM)
CC[C@H]1OC(=O)[C@H](C)[C@@H](OC(=O)CCN2CCN(c3nc4c(cc3F)c(=O)c(C(=O)O)cn4CC)CC2)[C@H](C)[C@@H](O[C@@H]2O[C@H](C)C[C@H](N(C)C)[C@H]2O)[C@](C)(OC)C[C@@H](C)/C(=N\OCC#Cc2cncc(C(=O)NC)c2)[C@H](C)[C@H]2OC(=O)O[C@@]21C	> 32 µg/mL	1	> 256 µg/mL	> 256 µg/mL	0.03 µg/mL (≈ 0.0255 µM)	4 µg/mL (≈ 3.4 µM)	>4	0.25 µg/mL (≈ 0.212 µM)	32 µg/mL (≈ 27.2 µM)	> 32 µg/mL	> 256 µg/mL	4	1	>8	>8	32 µg/mL (≈ 27.2 µM)	0.03 µg/mL (≈ 0.0255 µM)	4 µg/mL (≈ 3.4 µM)	64 µg/mL (≈ 54.4 µM)	0.06 µg/mL (≈ 0.051 µM)
CC[C@H]1OC(=O)[C@H](C)[C@@H](OC(=O)CCNCCCCCCCNc2cc3c(cc2F)c(=O)c(C(=O)O)cn3C2CC2)[C@H](C)[C@@H](O[C@@H]2O[C@H](C)C[C@H](N(C)C)[C@H]2O)[C@](C)(OC)C[C@@H](C)/C(=N\OC)[C@H](C)[C@H]2OC(=O)O[C@@]21C	16 µg/mL (≈ 14.9 µM)	1	128 µg/mL (≈ 119 µM)	16 µg/mL (≈ 14.9 µM)	0.25 µg/mL (≈ 0.233 µM)	0.016 µg/mL (≈ 0.0149 µM)	8	2 µg/mL (≈ 1.86 µM)	256 µg/mL (≈ 238 µM)	0.125 µg/mL (≈ 0.116 µM)	> 256 µg/mL	1	2	8	2	256 µg/mL (≈ 238 µM)	0.125 µg/mL (≈ 0.116 µM)	8 µg/mL (≈ 7.45 µM)	2 µg/mL (≈ 1.86 µM)	2 µg/mL (≈ 1.86 µM)
CC[C@H]1OC(=O)[C@H](C)[C@@H](OC(=O)CCN2CCN(c3cc4c(cc3F)c(=O)c(C(=O)O)cn4CC)CC2)[C@H](C)[C@@H](O[C@@H]2O[C@H](C)C[C@H](N(C)C)[C@H]2O)[C@](C)(OC)C[C@@H](C)/C(=N\OCC#Cc2cncc(C(=O)NC)c2)[C@H](C)[C@H]2OC(=O)O[C@@]21C	> 64 µg/mL	1	> 256 µg/mL	> 256 µg/mL	0.12 µg/mL (≈ 0.102 µM)	16 µg/mL (≈ 13.6 µM)	>4	1 µg/mL (≈ 0.85 µM)	16 µg/mL (≈ 13.6 µM)	> 128 µg/mL	> 256 µg/mL	8	1	>8	>8	16 µg/mL (≈ 13.6 µM)	0.12 µg/mL (≈ 0.102 µM)	8 µg/mL (≈ 6.8 µM)	64 µg/mL (≈ 54.4 µM)	0.12 µg/mL (≈ 0.102 µM)
CC[C@H]1OC(=O)[C@H](C)[C@@H](OC(=O)CCNCCCCNc2cc3c(cc2F)c(=O)c(C(=O)O)cn3C2CC2)[C@H](C)[C@@H](O[C@@H]2O[C@H](C)C[C@H](N(C)C)[C@H]2O)[C@](C)(OC)C[C@@H](C)/C(=N\OC/C=C/c2ccc3c(c2)c(=O)c(C(N)=O)cn3CC)[C@H](C)[C@H]2OC(=O)O[C@@]21C	2 µg/mL (≈ 1.57 µM)	1	> 256 µg/mL	> 256 µg/mL	0.12 µg/mL (≈ 0.0943 µM)	0.25 µg/mL (≈ 0.196 µM)	>4	0.06 µg/mL (≈ 0.0472 µM)	8 µg/mL (≈ 6.29 µM)	> 2 µg/mL	> 256 µg/mL	1	2	>8	8	8 µg/mL (≈ 6.29 µM)	0.06 µg/mL (≈ 0.0472 µM)	0.25 µg/mL (≈ 0.196 µM)	64 µg/mL (≈ 50.3 µM)	0.06 µg/mL (≈ 0.0472 µM)
CC[C@H]1OC(=O)[C@H](C)[C@@H](OC(=O)CCNCCCCNc2cc3c(cc2F)c(=O)c(C(=O)O)cn3C2CC2)[C@H](C)[C@@H](O[C@@H]2O[C@H](C)C[C@H](N(C)C)[C@H]2O)[C@](C)(OC)C[C@@H](C)/C(=N\OC)[C@H](C)[C@H]2OC(=O)O[C@@]21C	16 µg/mL (≈ 15.5 µM)	2	128 µg/mL (≈ 124 µM)	8 µg/mL (≈ 7.75 µM)	0.125 µg/mL (≈ 0.121 µM)	≤ 0.008 µg/mL	2	0.5 µg/mL (≈ 0.484 µM)	16 µg/mL (≈ 15.5 µM)	0.016 µg/mL (≈ 0.0155 µM)	> 256 µg/mL	1	2	2	2	32 µg/mL (≈ 31 µM)	0.062 µg/mL (≈ 0.0601 µM)	8 µg/mL (≈ 7.75 µM)	4 µg/mL (≈ 3.88 µM)	0.5 µg/mL (≈ 0.484 µM)
CC[C@H]1OC(=O)[C@H](C)[C@@H](OC(=O)CCN2CCN(c3cc4c(cc3F)c(=O)c(C(=O)O)cn4C3CC3)CC2)[C@H](C)[C@@H](O[C@@H]2O[C@H](C)C[C@H](N(C)C)[C@H]2O)[C@](C)(OC)C[C@@H](C)/C(=N\OC/C=C/c2cncc(C(=O)NC)c2)[C@H](C)[C@H]2OC(=O)O[C@@]21C	> 16 µg/mL	1	> 256 µg/mL	> 256 µg/mL	0.06 µg/mL (≈ 0.0504 µM)	8 µg/mL (≈ 6.72 µM)	>4	0.5 µg/mL (≈ 0.42 µM)	4 µg/mL (≈ 3.36 µM)	> 64 µg/mL	> 256 µg/mL	4	2	>8	>8	4 µg/mL (≈ 3.36 µM)	0.03 µg/mL (≈ 0.0252 µM)	2 µg/mL (≈ 1.68 µM)	64 µg/mL (≈ 53.8 µM)	0.12 µg/mL (≈ 0.101 µM)

— ChEMBL document CHEMBL5608186, “Design, synthesis and structure-activity relationships of novel non-ketolides: 9-Oxime clarithromycin featured with seven-to thirteen-atom-length diamine linkers at 3-OH” (Eur J Med Chem, 2024)
